Measurements reported in patent US8637266B2, “Anti bone-loss and anti attachment-loss effects of an oral composition” (Colgate-Palmolive Company, priority 2009, dated 2014).

Key:
[1] = tested on: MMP-9; assay: TNFα-induced MMP-9 production of U937 monocytes (ELISA of conditioned media); format: cell-based, Human; settings: for MMP-9 production, Average: U937 cells, 24 hours, conditioned media ELISA
Protocol: U937 cells and RPMI 1640 culture medium were obtained from ATCC. Human MMP-9 ELISA Kit (QUANTIKINE) was obtained from R&D Systems. Fetal Bovine Serum (FBS) was obtained from VWR, and the penicillin-streptomycin solution and Tumor Necrosis Factor α (TNFα) were obtained from Sigma.
Human leukemia U937 monocyte lymphoma cells were cultured in RPMI 1640 medium supplemented with 10% FBS and 1% Penicillin-Streptomycin solution. Cells were incubated at 37° C. in a humidified atmosphere containing 5% CO2 and 95% air. Before treatment, cells were transferred into RPMI containing 1% FBS for overnight. Cells were plated on a 48 well plate. Cell culture medium included either TNFα (250 ng/mL), Triclosan(1 ppm), or both agents together or no agent (control). Cells were incubated after treatment for 24 hours. Conditioned media were collected and store at −80° C. until analysis. Samples of conditioned media were subjected to enzyme-linked immunosorbent assays (ELISA) for MMP-9, according to commercial ELISA protocol (FIG. 1).

[2] = with PEG 600, weight ratio of 25 triclosan:1 PEG 600, versus absence of polyethylene glycol; cited from earlier work
[3] = tested on: MMP-13; assay: PTH-induced MMP-13 expression in UMR 106-01 osteoblast cells (real time quantitative RT-PCR); format: cell-based, Rat
Protocol: Parathyroid hormone (rat PTH 1-34) was purchased from Sigma. UMR 106-01 cells were cultured in Eagle's minimal essential medium (EMEM) supplemented with 25 mM Hepes pH 7.4, 1% nonessential amino acids, 100 units/rill penicillin, 100 μg/ml streptomycin. 5% fetal bovine serum. Real Time Quantitative RT-PCR was conducted according to the following method: UMR 106-01 cells were seeded in 12-well plates and cultured for 2-3 days in cell culture media. When cells were confluent, cell culture media was exchanged with 1% fetal bovine serum for overnight for cell starvation. Cells were pre-incubated with triclosan or a triclosan-containing dentifrice (see. e.g., U.S. Pat. Nos. 4,894,220, 5,032,386, and related patents) for 15 min and then incubated with PTH (10^−8 M) for 4 hours.
Total RNA was isolated from UMR 106-01 cells stimulated with or without PTH with TRIzol reagent. Total RNA (0.1 μg) was reverse-transcribed to cDNA using the Invitrogen SUPERSCRIPT kit according to the manufacturer's instructions. All cDNAs were amplified by adding 2.5 μl of cDNA to the PCR mixture (22.5 μl) containing each primer (0.2 μM) and 12.5 μl of the Platinum SYBR Green qPCR SuperMix UDG (Invitrogen). The reactions were preincubated at 50° C. for 2 minutes to decontaminate dU-containing DNA by UDG, then at 95° C. for 2 minutes to inactivate UDG and activate Taq. The PCR program continued 49 cycles of denaturation at 95° C. for 15 seconds, annealing and elongation of the primers at 60° C. for 30 seconds. Relative quantification of gene expression was determined by using the 2-delta delta CT method where fold changes in gene expression are relative to control samples. All samples were normalized to β-actin.
All results were expressed as means±standard error (S.E.) of triplicate measurements with all experiments being repeated at least three times. Statistical analyses were carried out using the Student's t test.

Row | Compound | MMP-9 production, Average ([1]; TNFα 250 ng/mL alone) [ng/mL] | factor by which antibacterial activity is reduced [2] | effect on MMP-9 level in TNFα stimulated U937 cells ([1]; Triclosan at 1 ppm) | MMP-9 production, Average ([1]; TNFα 250 ng/mL + Triclosan 1 ppm) [ng/mL] | MMP-13 expression, Average (fold change relative to control, normalized to β-actin) ([3]; Triclosan 1 ppm + PTH 10^−8 M, 15 min pre-incubation, 4 hours) | MMP-13 expression, Average (fold change relative to control, normalized to β-actin) ([3]; Triclosan 1 ppm, without PTH) | MMP-13 expression, Average (fold change relative to control, normalized to β-actin) ([3]; Triclosan 4 ppm + PTH 10^−8 M, 15 min pre-incubation, 4 hours) | MMP-13 expression, Average (fold change relative to control, normalized to β-actin) ([3]; Triclosan 4 ppm, without PTH) | MMP-13 expression, Average (fold change relative to control, normalized to β-actin) ([3]; Triclosan 10 ppm + PTH 10^−8 M, 15 min pre-incubation, 4 hours) | MMP-13 expression, Average (fold change relative to control, normalized to β-actin) ([3]; Triclosan 10 ppm, without PTH) | effect on MMP-13 expression in PTH stimulated UMR cells ([3]; Triclosan at 10 ppm, 4 ppm and 1 ppm)
1 | TNFα | 0.275 | – | – | – | – | – | – | – | – | – | –
2 | Oc1cc(Cl)ccc1Oc1ccc(Cl)cc1Cl [Triclosan, 2,4,4′-trichloro-2′-hydroxydiphenyl ether] | – | 10-20 | significantly reduced | 0.155 | 35.38 | 0.4166 | 10.56 | 1.424 | 3.012 | 1.518 | significantly reduced
